Laboratory results published in article PMC8402032, “Unsymmetric Cisplatin-Based Pt(IV) Conjugates Containing a PARP-1 Inhibitor Pharmacophore Tested on Malignant Pleural Mesothelioma Cell Lines” (Molecules, 2021).

Key:
[1] = tested on: REN (epithelioid) malignant pleural mesothelioma cells; assay: Cell viability assay (Trypan blue dye exclusion), REN; assay type: cell-based, human; conditions: 72 h treatment
Procedure: (§1) Complexes 6–9 were tested on a panel of human MPM cell lines together with CDDP and SAA1, added for comparison (Table 1). The half-maximal inhibitory concentration, IC50, was determined on MSTO-211H (biphasic phenotype), REN (epithelioid), BR95 (epithelioid), and MM98 (sarcomatoid) cancer cell lines to identify the most promising Pt(IV) conjugate to be further investigated. To determine the number of viable cells, the use of the dye exclusion assay was preferred to the colorimetric assay because of the heterogeneity in the energy metabolism between the different MPM cell lines. This may justify minor differences with respect to the previously published IC50 for CDDP [40].
(§2) Cells were seeded at a density of 10 × 10^4 cells per well in 6-well plates in RPMI medium supplemented with 10% fetal bovine serum (FBS), 100 μg mL^−1 streptomycin, and 10 μg mL^−1 penicillin and incubated overnight at 37 °C in a humidified environment containing 5% CO2 to allow adherence. Cisplatin was dissolved in 0.9% w/v aqueous NaCl brought to pH = 3 with HCl (final stock concentration 1 mM). The Pt(IV) complexes were dissolved in DMSO (final stock concentration 5 mM); the resulting solutions were microfiltered (0.45 μm) and their Pt content was checked by ICP-MS (see Section 3.5.2). These mother solutions were diluted in complete medium to the required concentration range.
(§3) Following 72 h of treatment with the diluent of the compound (Ctrl) or different doses of the Pt compounds, cells were trypsinized and stained with Trypan blue. The number of cells considered viable (unstained cells) was counted in a Bürker haemocytometer within 5 min after staining.

MSTO-211H cells [2] = assay: γH2AX foci immunofluorescence; assay type: cell-based, human; conditions: 5 µM, 72 h
Procedure: This is in tune with the activation by reduction mechanism (Scheme 1) that is able to generate CDDP in the cells.
MSTO-211H cells were plated on slides and treated for 72 h with diluent or 5 μM complex 6. Slides were then fixed for 20 min with 4% paraformaldehyde (Sigma-Aldrich), rinsed with PBS, and then the cells were permeabilized for 5 min in 0.1% Triton X-100, followed by three 5 min PBS washes. Slides were treated thrice for 10 min in a blocking solution of 5% bovine serum albumin (BSA) (Invitrogen). Mouse anti-γH2AX antibody (Millipore) was added (1:100 in 1% BSA) and incubated for 1 h in a dark, humidified environment at room temperature. Slides were then exposed to a secondary goat anti-mouse antibody, FITC (1:100 in PBS) and incubated for 1 h in the dark, humidified environment at room temperature. Slides were rinsed thrice in PBS, mounted, and cell imaged with a Leica fluorescence microscope.
(§4) Figure 4 (A) Representative Western blot showing poly(ADP-ribose) (PAR) and PARP-1 expression following 72 h MSTO-211H cell treatment with diluent (Ctrl) or 5 µM concentrations of cisplatin (CDDP), 6, CDDP + 3-ABA combination (1:1 ratio), and 3-ABA alone. HSC70 protein was used as loading control. (B) Immunocytochemistry was used to capture representative γH2AX focus images following 72 h MSTO-211H cell treatment with diluent (Ctrl) or 5 µM of complex 6.

[3] = tested on: MSTO-211H (biphasic phenotype) malignant pleural mesothelioma cells; assay: Cell viability assay (Trypan blue dye exclusion), MSTO-211H; assay type: cell-based, human; conditions: 72 h treatment
Procedure: as §1, §2, §3

PARP-1 = target: T1, PARP-1 (Homo sapiens, UniProt P09874); assay: Western blot of poly(ADP-ribose) (PAR) and PARP-1 in MSTO-211H cells; assay type: cell-based; conditions: 5 µM, 72 h
T1 construct: endogenous in cells; host or cells: MSTO-211H cells
T1 sequence (P09874 whole entry): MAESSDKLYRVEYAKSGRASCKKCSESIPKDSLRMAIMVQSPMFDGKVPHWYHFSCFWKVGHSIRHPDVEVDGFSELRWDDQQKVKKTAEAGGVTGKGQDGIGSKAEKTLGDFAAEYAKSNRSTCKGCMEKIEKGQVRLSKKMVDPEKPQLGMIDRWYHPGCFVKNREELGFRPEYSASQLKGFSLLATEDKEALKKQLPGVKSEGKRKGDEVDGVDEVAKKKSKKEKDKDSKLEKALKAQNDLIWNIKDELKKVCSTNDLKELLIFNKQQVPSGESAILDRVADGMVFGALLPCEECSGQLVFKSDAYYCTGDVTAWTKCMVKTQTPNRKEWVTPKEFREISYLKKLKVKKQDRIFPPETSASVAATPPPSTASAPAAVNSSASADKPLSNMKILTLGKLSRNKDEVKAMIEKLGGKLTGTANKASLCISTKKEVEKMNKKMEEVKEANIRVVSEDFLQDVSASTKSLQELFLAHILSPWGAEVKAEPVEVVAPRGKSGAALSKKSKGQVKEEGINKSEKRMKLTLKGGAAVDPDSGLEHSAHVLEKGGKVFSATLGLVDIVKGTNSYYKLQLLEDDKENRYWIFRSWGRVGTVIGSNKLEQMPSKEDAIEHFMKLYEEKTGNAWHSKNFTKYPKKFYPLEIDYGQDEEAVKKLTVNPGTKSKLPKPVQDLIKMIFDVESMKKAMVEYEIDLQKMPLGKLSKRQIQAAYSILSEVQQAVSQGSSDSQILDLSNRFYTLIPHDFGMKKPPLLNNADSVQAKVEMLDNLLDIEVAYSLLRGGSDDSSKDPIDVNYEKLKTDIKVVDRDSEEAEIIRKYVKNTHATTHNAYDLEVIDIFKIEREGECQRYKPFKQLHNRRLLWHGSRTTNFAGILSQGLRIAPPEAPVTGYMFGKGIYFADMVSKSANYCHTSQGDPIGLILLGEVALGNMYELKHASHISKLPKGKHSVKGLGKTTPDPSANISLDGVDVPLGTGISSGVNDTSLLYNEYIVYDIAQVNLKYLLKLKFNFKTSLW
Procedure: The effect of the most promising complex 6 on PARP-1 activity was further evaluated. MSTO-211H cells were treated with equimolar concentrations (5 µM) of 6, CDDP, and 3-ABA for 72 h. The two last compounds were used either alone or in combination in a 1:1 molar ratio. Western blot analysis evaluated the expression of poly(ADP-ribose) (PAR), which is the product of PARP-1 activity (Figure 4A).
For protein analysis, cells were extracted with 1% NP-40 lysis buffer (50 mM Tris-HCl pH 8.5 containing 1% NP-40, 150 mM NaCl, 10 mM EDTA, 10 mM NaF, 10 mM Na4P2O7, and 0.4 mM Na3VO4) with freshly added protease inhibitors (10 μg mL^−1 leupeptin, 4 μg mL^−1 pepstatin, and 0.1 U mL^−1 aprotinin). Lysates were centrifuged at 13,000× g for 10 min at 4 °C and the supernatants were collected and assayed for protein concentration with the Bradford assay method (Bio-Rad). Proteins were separated by SDS-PAGE (sodium dodecyl sulfate polyacrylamide gel electrophoresis) under reducing conditions. Following SDS-PAGE, proteins were transferred to nitrocellulose, reacted with specific antibodies, and then detected with peroxidase-conjugate secondary antibodies and chemioluminescent ECL reagent. Digital images were taken with the Bio-Rad ChemiDocTM Touch Imaging System and quantified using Bio-Rad Image Lab 5.2.1.
as §4

[4] = tested on: BR95 (epithelioid) malignant pleural mesothelioma cells; assay: Cell viability assay (Trypan blue dye exclusion), BR95; assay type: cell-based, human; conditions: 72 h treatment
Procedure: as §1, §2, §3

MSTO-211H cells [5] = assay: Cell uptake (intracellular Pt by ICP-MS); assay type: cell-based, human; conditions: 10 μM, 4 h treatment, mean ± sd
Procedure: Cellular accumulation of compounds 6–9 was evaluated by means of the intracellular Pt uptake after 4 h treatment of MSTO-211H cells and expressed as ng Pt per 10^6 cells (Table 1). As expected, the Fmoc protection of 6 and 7 enhances the lipophilicity of the complexes, facilitating their cell uptake. Also the elongation of the organic linker from -(CH2)2- to -(CH2)6- increases (to a minor extent) the lipophilicity in 7 and 9 with respect to 6 and 8.
MSTO-211H cells were seeded in […] Petri dishes and challenged with the compounds and mixtures under investigations (10 μM) in complete medium. At the end of the exposure, cells were washed three times with phosphate buffered saline (PBS) and detached from the Petri dishes using 0.05% Trypsin 1X + 2% EDTA (HyClone, Thermo Fisher). The cells were harvested in fresh complete medium and an automatic cell counting device (Countess®, Life Technologies, Carlsbad, CA, USA) was used to measure the number and the mean diameter from every cell count. The harvested cells were transferred into a borosilicate glass tube and centrifuged at 1100× g rpm for 5 min at room temperature. The supernatant was carefully removed by aspiration, but about 200 μL of the supernatant was left in order to limit the cellular loss. Finally, the cellular pellets were stored at −80 °C. Platinum content determination was performed by ICP-MS (Thermo Optek X Series 2). Complete mineralization was obtained by the addition of 70% w/w HNO3 to each sample (after defrosting), followed by incubation for 1 h at 60 °C in an ultrasonic bath. Before the ICP-MS measurement, the HNO3 was diluted to a final 1% concentration. The instrumental settings were optimized to yield maximum sensitivity for platinum, and the most abundant isotopes of Pt (m/z = 195) and In (m/z = 115, used as internal standard) were quantified. The level of Pt found in cells after the treatment was normalized to the cell number and expressed as ng of Pt per 10^6 cells.

IC50 ([1]; mean ± sd): 1.59 ± 0.07 µM | IC50 ([3]; mean ± sd, read-out: IC50 MSTO-211H): 0.69 ± 0.03 µM | PARP-1 cleavage (PARP-1): complex 6 alone did | PARP-1 parylation (PAR expression) (PARP-1): No self-parylation of PARP-1 | IC50 ([4]; mean ± sd): 0.83 ± 0.04 µM
Compound: CC(=O)[O][Pt]([NH2])([NH2])([Cl])([Cl])[O]C(=O)CCNC(=O)c1cccc(NC(=O)OCC2c3ccccc3-c3ccccc32)c1 [Compound 6, (OC-6-44)-Acetato[3-(3-(fmoc-amino)-benzamido)-propanoato]-diammine-dichlorido-platinum(IV)]
ratio IC50 (cisplatin)/IC50 (Pt(IV) complex), REN [1]: 1.9 | DNA damage (γH2AX foci) (MSTO-211H cells [2]): increased number of γH2AX foci | ratio IC50 (cisplatin)/IC50 (Pt(IV) complex), MSTO-211H [3]: 1.6 | ratio IC50 (cisplatin)/IC50 (Pt(IV) complex), BR95 [4]: 2.6 | Pt Uptake (MSTO-211H cells [5]): 10.64 ± 1.77 ng Pt per 10^6 Cells
